Laboratory results from US5008246A, “Novel peptides suppressing the function of the immune system, pharmaceutical compositions containing them and process for preparing same” (Richter Gedeon Vegyeszeti Gyar R. T., priority 1988, dated 1991).
Where a SMILES comes first, the peptide text is derived from it. [ ]: non-standard residue; d: D form.

What was measured:
contact dermatitis = assay: Inhibition of the contact dermatitis (oxazolone, method of Evans et al.); assay type: in vivo, male BALB/c (LATI) mice; conditions: oxazolone-sensitized mice, 1.0 mg/kg i.p.; ear weight difference after 24 hours vs physiological saline control
Description: These investigations were carried out on male BALB/c (LATI) mice with 20 to 22 g body-weight by using the method of Evans et al. [Br. J. Pharmacol. 43, 403 (1971)]. The abdominal side of the animals were depilated, then the naked abdominal skin of each animal was sensitized by 0.1 ml of the oxazolone solution of 2% in sunflower oil. After 1 week, the mice were i.p. treated with an 1.0 mg/kg dose of the test substance (dissolved in physiological saline solution), then the right ear of the animals was directly treated with 10 μl of an acetone solution containing 2% oxazolone while their left ear was treated with 10 μl of acetone. After 24 hours, their ears were cut off and weighed. The difference between the weight of treated and untreated ears of the animals was compared with the difference observed at the animals treated with the test substance and treated only with physiological saline solution, respectively. The difference in the ear weight was considered to be proportional to the extent of the contact dermatitis, while the value measured at the animals not treated with the test substance was taken as control, the dermatitis-diminishing effect of the test substances was obtained as expressed in percentage shown in Table 4.

resting macrophages = assay: Effect on the phagocytating capacity of resting macrophages; assay type: in vivo, male NZB (OLAC-SzKB) mice; conditions: 1 mg/kg s.c. daily for 4 days; count of phagocytated opsonized yeast cells by peritoneal macrophages vs untreated animals
Description: These examinations were carried out on 6 months old male NZB (OLAC-SzKB) mice according to the method described in J. Immunopharmnacol. 4, 265 (1982-1983). The animals were treated daily with a 1 mg/kg subcutaneous (s.c.) dose of the test substances for 4 days. After bleeding the animals, their peritonea were washed with 8 ml of PBS buffer solution (pH 7.2) each containing 10 IU of heparin. The cell suspension washed out from the peritoneum was made free of the erythrocytes by shocking with distilled water, then washed 3 times with PBS buffer solution. The sedimentation between two washings was achieved by centrifuging at 1000 rpm for 5 minutes. Then, the concentration of each cell suspension was adjusted to 10^6 cell/ml and the suspension was settled for 30 minutes in a Boyden-chamber at 37° C. in an atmosphere containing 5% of carbon dioxide. Over the macrophages adhered to the glass wall, opsonized yeast was layered. After removing the non-phagocytated particles, those incorporated by the macrophages were counted in each cell. In Table 3, the percentage of decrease in the count of the phagocytated yeast cells is given in relation to the macrophages isolated from the untreated animals as control.

Row | Compound | Inhibition of the contact dermatitis % (contact dermatitis) | Effect on the phagocytating capacity of resting macrophages % (resting macrophages)
1 | N=C(N)NCCC[C@H](N)C(=O)NCCCC[C@H](N)C(=O)N[C@@H](CC(=O)O)C(=O)O [Compound 12, Lys(Arg)--Asp] (H-Lys(Arg)-Asp-OH) | -16% | -42%
2 | N=C(N)NCCC[C@H](N)C(=O)NCCCC[C@H](N)C(=O)N[C@H](CC(=O)O)C(=O)O [Compound 13, Lys(Arg)--D--Asp] (H-Lys(Arg)-[dD]-OH) |  | -50%
